Earlier results as cited in patent publication US20060281715A1, “Phosphates of secondary alcohols” (priority 2003, published 2006).

Legend:
noradrenaline uptake = conditions: enantiomers of venlafaxine
seratonin uptake = conditions: enantiomers of venlafaxine
[1] = major metabolite
[2] = oral administration

For COc1ccc(C(CN(C)C)C2(O)CCCCC2)cc1 (single isomer, unassigned) [R-enantiomer], the “potency as inhibitor of noradrenaline uptake, compared with other enantiomer” value (noradrenaline uptake) is given as “more potent”.
In the case of COc1ccc(C(CN(C)C)C2(O)CCCCC2)cc1 (single isomer, unassigned) [S-enantiomer], the “potency as inhibitor of seratonin uptake, compared with other enantiomer” value (seratonin uptake) is listed as “more potent”.
For CN(C)CC(c1ccc(O)cc1)C1(O)CCCCC1 (stereo not drawn) [O-desmethylvenlafaxine], the half-life (calculated) is given as 11 h and the “potency compared with venlafaxine” value [1] is given as “equally potent”.
In the case of CC[C@H](C)C(=O)O[C@H]1C[C@H](O)C=C2C=C[C@H](C)[C@H](CC[C@@H](O)C[C@@H](O)CC(=O)O)[C@H]21 [Pravastatin], the “time to peak plasma levels” value [2] is given as “about an hour and a half”.
In the case of COc1ccc(C(CN(C)C)C2(O)CCCCC2)cc1 (stereo not drawn) [Venlafaxine], the “time to mean peak plasma concentrations” value (following single 25 to 150 mg doses) is given as “approximately 2.4 hours”.
